Source: patent US7816321B2, “Thymosin β4 derivatives and use thereof” (Beijing Northland Biotech. Co., Ltd., priority 2005, dated 2010)
Values joined by “and” are separate entries in the source; they are usually repeats but may differ in a detail not shown here. Equal values may be shown once.

How the values were obtained:
Assay type in all cases: in vivo
[1] = test system: rabbit cornea alkali burn models; assay: Rabbit cornea alkali burn model: recovery of corneal epithelium; conditions: 5th day; 500 μg/ml eyedrops, 4 times per day
From the text: Eyeballs were exenterated separately after 1 and 5 days, fixed with 10% formaldehyde, embedded with paraffin, and continuously sectioned along pupil optic nerve plane, the obtained sections were stained and used for collection and analysis of recovery of corneal epithelium by image analysis system.

[2] = test system: rat left anterior descending branch coronary artery reperfusion models (acute myocardial infarction); assay: Rat heart ischemia model: thickness of anterior left ventricular wall by ultrasonic cardiogram; conditions: for thickness of anterior left ventricular wall: 10 μg/rat/day intraperitoneal injection
Method: (§1) Rats were administrated with xylazine 5 mg/kg by intramuscular injection; anesthetized with ketamine 50 mg/kg, and rat anterior chest wall was disinfected with iodine tincture and alcohol; after completely dry, a sterile operation towel was put on, the operative site was exposed, and the operation was conducted under complete aseptic condition. The skin of rat anterior chest wall was incised, and the 3rd to the 6th ribs were cut to expose thoracic cavity, the lung was pushed aside, the heart vesicle was opened to expose the heart. Blood vessel from the origin of left anterior descending branch coronary artery to 3 mm was ligated with 6-0 polypropylene ligature wire and NELATION, and the reperfusion was conducted 1 hour later. After non-hemorrhage was confirmed, the excised ribs were sutured with sternum, and then skin was sutured. After operation, the rats were administrated with 3 mg/kg/day gentamicin for 3 days by intramuscular injection for prevention of infection.
3. Comparison of Degree of Heart Ventricle Fibrosis by Using Histological Pictures

[3] = test system: rat cornea alkali burn models; assay: Rat cornea alkali burn model: recovery of corneal epithelium by image analysis
From the text: The corneas of 30 adult rats were burned with 1N NaOH to obtain rat corneal lesion models.
After 4 days, eyeballs were exenterated, fixed with 10% formaldehyde, embedded with paraffin and continuously sectioned along pupil optic nerve plane, the obtained sections were used for collection and analysis of recovery of corneal epithelium by image analysis system.

[4] = test system: rat epidermis lesion models; assay: Rat epidermis lesion model: wound healing observation after topical administration by nebulizer
Method: (§2) Rats were administrated with xylazine 5 mg/kg by intramuscular injection; anesthetized with ketamine 50 mg/kg, and rat posterior skin was disinfected with iodine tincture and alcohol; after completely dry, a sterile operation towel was put on, the operative site was exposed, and the operation was conducted under complete aseptic condition. The rat posterior skin was incised to form 3 cm incision.

[5] = test system: rat left anterior descending branch coronary artery reperfusion models (acute myocardial infarction); assay: Rat heart ischemia model: degree of heart ventricle fibrosis by histological pictures (Masson's trichrome); conditions: 56th day after administration; 10 μg/rat/day intraperitoneal injection
Method: as §1

[6] = test system: rat models with left anterior descending branch coronary artery ligation and reperfusion; assay: Rat coronary artery ligation and reperfusion model: cell death and heart function (summary); conditions: continuous injection for one month
Method: 60 adult rats were subjected to coronary artery deligation to imitate the onset of heart disease and to obtain rat models with left anterior descending branch coronary artery ligation and reperfusion.
as §1

[7] = test system: rat epidermis lesion models; assay: Rat epidermis lesion model: wound length by computer image analysis (smearing on epidermis)
Method: 30 adult rats were cut on their epidermis to obtain rat epidermis lesion model.
as §2

[8] = 100 μg/ml, topical by nebulizer, 4 times per day

Question: What does the source list for “Tβ4: Native thymosin β4, polypeptide with 43 amino acids as shown in SEQ ID NO:1; positive control (SDKPDMAEIEKFDKSKLKKTETQEKNPLPSKETIEQEKQAGES; listed as Homo sapiens)”?
Answer: layers of epithelial cells appeared [1]: 1-2 layers; recovery condition of corneal epithelium [1]: all injured corneal epithelial cells were recovered and became normal; thickness of anterior left ventricular wall, basal value ([2]; 0th day, before administration, rat heart ischemia model): 0.2378±0.018; thickness of anterior left ventricular wall ([2]; 14th day after administration): 0.1919±0.012 and 0.1215±0.013; thickness of anterior left ventricular wall ([2]; 28th day after administration): 0.1233±0.0071; thickness of anterior left ventricular wall ([2]; 56th day after administration): 0.1232±0.0057; recovery of corneal epithelium (image analysis), basal value ([3]; 0th day, before administration, 1N caustic soda burn): 4.76±0.18; recovery of corneal epithelium (image analysis) ([3]; 4th day after administration, eyedrops 30 μl/rat, 4 times per day): 7.03±0.13; recovery of injured corneas ([3]; dropped in eyes for 4 days, corneas burned with 1N NaOH): recovered completely; wound healing time [4, 8]: 5.8 ± 0.91 days; wound inflammatory reaction (severity) [4, 8]: relatively slight inflammatory reactions; wound inflammatory reaction, time persisted [4, 8]: 1 to 2 days; scar appearance ([4]; two weeks after administration, 100 μg/ml by nebulizer): relatively fine linear scars with relatively smooth surface; scar size ([4]; two weeks after administration, 100 μg/ml by nebulizer, 4 times per day): 1.9±0.23 cm; ratio of fibrosis part of myocardium based on total myocardium of left ventricle [5]: 23.15±2.9% and 22.91±2.3%; cell death in the injured rat heart [6]: Limited cells died; heart functions ([6]; several weeks after the onset of heart disease): heart functions were improved; wound length, basal value ([7]; 0th day, before administration, 3 cm incision of posterior skin): 3.07±0.18; wound length ([7]; 5th day, smeared on epidermis 4 times per day, 5 μg/day): 1.62±0.13; length of wounds smaller than the blank control ([7]; smeared for 5 days, 30 adult rats): 50%
